Experimental data: BindingDB's records for patent US20240025884 (Dong-A St Co., 2024)

Biological target: eIF-2-alpha kinase GCN2 (Homo sapiens, UniProt Q9P2K8)
Assay: Biochemical Assay
Experimental: 384-well (Greiner #784075) (or 1536-well [Greiner #782075]) plates containing 60 nl (or 20 nl for 1536-well) of compound in 100% DMSO (10 concentrations serially diluted 3.16-fold) were prepared. Two copies of plates were used one for the GCN2 assay and a second for an artifact plate. Working reagents were prepared as follows reaction buffer: Tris pH 7.5 20 mM, MgCl2 5 mM, DTT 1 mM, Brij-35 0.005%, EGTA 0.5 mM in water; 2 enzyme solution: GCN2 (produced in-house) 1.6 nM in reaction buffer; 2 substrate solution: GFP-eIFS1 (Thermo Fisher Scientific, PV4809) 50 nM, ATP 0.2 mM, tRNA 0.4 mg/ml in reaction buffer; p-GFP-eIF2S1 (artifact) solution: p-GFP-eIFS1 (produced by incubation of 100 nM GFP-eIF2S1 in reaction buffer with 100 uM ATP and 1 nM PERK KD enzyme for 3 hr at room temperature) 2 nM in reaction buffer; 3 stop/antibody solution: p-GFP-EIF2S1 Th-Ab (Thermo Fisher Scientific, PV4816) 6 nM, AZ13933939 3 uM, BSA 3% in reaction buffer. Reagents were loaded onto a liquid dispenser (Certus FLEX, Trajan Scientific and Medical), and 3 ul (1 ul for 1536-well) of 2 enzyme solution, followed by 3 ul (1 ul for 1536-well) of 2 substrate solution was added to the plates. When small numbers of plates were processed, the enzyme solution was added first to all plates, then the valve used for the substrate solution was primed immediately prior to use. […]

Sequence of eIF-2-alpha kinase GCN2 (Q9P2K8 whole entry): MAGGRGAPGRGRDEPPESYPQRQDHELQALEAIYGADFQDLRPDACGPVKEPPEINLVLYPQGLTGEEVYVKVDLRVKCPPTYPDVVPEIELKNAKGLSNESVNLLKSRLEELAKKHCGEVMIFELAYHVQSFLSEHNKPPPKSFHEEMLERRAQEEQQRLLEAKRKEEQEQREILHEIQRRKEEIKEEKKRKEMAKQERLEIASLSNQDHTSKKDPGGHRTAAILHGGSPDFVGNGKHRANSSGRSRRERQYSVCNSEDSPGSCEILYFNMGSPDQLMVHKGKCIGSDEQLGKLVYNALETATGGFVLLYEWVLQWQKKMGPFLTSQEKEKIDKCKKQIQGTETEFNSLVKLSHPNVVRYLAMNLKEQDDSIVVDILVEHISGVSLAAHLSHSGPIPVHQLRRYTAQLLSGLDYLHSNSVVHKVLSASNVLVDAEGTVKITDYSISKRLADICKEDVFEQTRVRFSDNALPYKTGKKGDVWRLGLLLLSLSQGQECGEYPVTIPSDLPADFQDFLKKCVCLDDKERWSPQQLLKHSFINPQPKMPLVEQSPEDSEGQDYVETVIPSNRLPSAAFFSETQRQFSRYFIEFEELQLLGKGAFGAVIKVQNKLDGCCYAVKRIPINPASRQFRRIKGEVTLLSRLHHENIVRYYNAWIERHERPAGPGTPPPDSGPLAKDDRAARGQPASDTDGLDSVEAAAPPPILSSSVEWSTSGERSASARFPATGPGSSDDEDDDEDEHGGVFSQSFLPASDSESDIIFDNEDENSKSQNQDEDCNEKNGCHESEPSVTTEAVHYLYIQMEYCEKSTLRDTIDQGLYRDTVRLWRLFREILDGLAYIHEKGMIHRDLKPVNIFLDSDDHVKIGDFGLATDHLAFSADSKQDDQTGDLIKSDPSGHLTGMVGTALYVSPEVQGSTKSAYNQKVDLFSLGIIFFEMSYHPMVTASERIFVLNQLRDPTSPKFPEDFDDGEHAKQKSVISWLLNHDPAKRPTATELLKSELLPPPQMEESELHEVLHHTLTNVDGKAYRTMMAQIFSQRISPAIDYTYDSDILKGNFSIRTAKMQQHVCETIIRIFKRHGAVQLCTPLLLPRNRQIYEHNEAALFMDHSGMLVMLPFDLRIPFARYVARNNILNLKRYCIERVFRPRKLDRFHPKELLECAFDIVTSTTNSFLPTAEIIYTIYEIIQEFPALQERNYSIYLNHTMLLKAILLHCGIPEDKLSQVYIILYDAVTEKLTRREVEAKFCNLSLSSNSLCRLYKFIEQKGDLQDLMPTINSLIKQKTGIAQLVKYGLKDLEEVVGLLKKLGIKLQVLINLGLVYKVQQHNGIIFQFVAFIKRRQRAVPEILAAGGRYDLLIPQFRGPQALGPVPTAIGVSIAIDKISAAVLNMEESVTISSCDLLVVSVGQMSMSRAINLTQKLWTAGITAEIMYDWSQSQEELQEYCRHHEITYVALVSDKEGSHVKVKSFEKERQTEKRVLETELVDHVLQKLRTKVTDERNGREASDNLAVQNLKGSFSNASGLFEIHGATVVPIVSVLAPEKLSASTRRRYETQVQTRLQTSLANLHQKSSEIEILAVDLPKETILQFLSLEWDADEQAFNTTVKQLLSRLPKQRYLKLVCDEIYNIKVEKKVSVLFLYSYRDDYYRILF

Row | Compound | IC50 [nM]
1 | Cc1cc(Nc2ncc(Cl)c(-c3c[nH]c4c(NC(=O)CN5CC[C@H](Oc6ccnc(NC7CC7)n6)C5)cccc34)n2)nn1C [US20240025884, Example 10] | < 10
2 | Cc1cnc(Nc2cc(C)n(C)n2)nc1-c1c[nH]c2c(N3Cc4c(/C=C/C(=O)NC(C)C)cccc4C3=O)cccc12 [US20240025884, Example 370] | < 10
